How the values were obtained:
[1] = system: barnyardgrass; assay: Test A preemergence; type: in vivo, Echinochloa crus-galli
In short: (§1)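 Injury scores run from 0, no effect, to 100, complete control, judged by eye against untreated plants roughly 10 days after treatment. Chemicals carried a surfactant in a non-phytotoxic solvent and went onto loam–sand soil preemergence or onto one- to two-leaf seedlings postemergence.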

[2] = system: large (Lg) crabgrass; assay: Test A preemergence; type: in vivo, Digitaria sanguinalis
In short: as §1

[3] = system: giant foxtail; assay: Test A preemergence; type: in vivo, Setaria faberii
In short: as §1

[4] = system: morningglory; assay: Test A preemergence; type: in vivo, Ipomoea spp.
In short: as §1

[5] = system: pigweed; assay: Test A preemergence; type: in vivo, Amaranthus retroflexus
In short: as §1

[6] = system: velvetleaf; assay: Test A preemergence; type: in vivo, Abutilon theophrasti
In short: as §1

[7] = system: wheat; assay: Test A preemergence; type: in vivo, Triticum aestivum
In short: as §1

[8] = system: corn; assay: Test A preemergence; type: in vivo, Zea mays
In short: as §1

[9] = system: barnyardgrass; assay: Test A postemergence; type: in vivo, Echinochloa crus-galli
In short: as §1

[10] = system: large (Lg) crabgrass; assay: Test A postemergence; type: in vivo, Digitaria sanguinalis
In short: as §1

[11] = system: giant foxtail; assay: Test A postemergence; type: in vivo, Setaria faberii
In short: as §1

[12] = system: morningglory; assay: Test A postemergence; type: in vivo, Ipomoea spp.
In short: as §1

[13] = system: pigweed; assay: Test A postemergence; type: in vivo, Amaranthus retroflexus
In short: as §1

[14] = system: velvetleaf; assay: Test A postemergence; type: in vivo, Abutilon theophrasti
In short: as §1

[15] = system: wheat; assay: Test A postemergence; type: in vivo, Triticum aestivum
In short: as §1

[16] = system: corn; assay: Test A postemergence; type: in vivo, Zea mays
In short: as §1

[17] = system: rice; assay: Test B flooded paddy test; type: in vivo, Oryza sativa; conditions: Flood, 250 g ai/ha; 0 to 100 scale where 0 is no effect and 100 is complete control
In short: (§2)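 Plants at 2-leaf stage; pots flooded to 3 cm above soil and compound applied directly into paddy water, depth held throughout. After 13 to 15 days in greenhouse, visual rating versus controls on 0 (no effect) to 100 (complete control) scale.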

[18] = system: sedge, umbrella; assay: Test B flooded paddy test; type: in vivo, Cyperus difformis; conditions: Flood, 250 g ai/ha; 0 to 100 scale where 0 is no effect and 100 is complete control
In short: as §2

[19] = system: Heteranthera limosa; assay: Test B flooded paddy test; type: in vivo; conditions: Flood, 250 g ai/ha; 0 to 100 scale where 0 is no effect and 100 is complete control
In short: as §2

[20] = system: barnyardgrass; assay: Test B flooded paddy test; type: in vivo, Echinochloa crus-galli; conditions: Flood, 250 g ai/ha; 0 to 100 scale where 0 is no effect and 100 is complete control
In short: as §2

[21] = 500 g ai/ha, 0 to 100 scale where 0 is no effect and 100 is complete control
[22] = 125 g ai/ha, 0 to 100 scale where 0 is no effect and 100 is complete control
[23] = 125 g ai/ha, 0 to 100 scale, 0 no effect, 100 complete control
[24] = 500 g ai/ha, 0 to 100 scale, 0 no effect, 100 complete control, approx. 10 days
[25] = 500 g ai/ha, 0 to 100 scale, 0 no effect, 100 complete control
[26] = 1000 g ai/ha, 0 to 100 scale, 0 no effect, 100 complete control
[27] = 1000 g ai/ha, 0 to 100 scale, 0 no effect, 100 complete control, approx. 10 days

COc1cnc(Oc2cccc(C#N)c2-n2cc(Br)cn2)nc1 [Compound 218]
70: Barnyardgrass plant response rating [1, 21] | Plant response rating, Barnyardgrass [9, 21] | Plant response rating, Crabgrass, Large [10, 21] | Plant response rating, Foxtail, Giant [11, 21] | Morningglory plant response rating [12, 22]
100: Crabgrass, Large plant response rating [2, 21] | Foxtail, Giant plant response rating [3, 21] | Pigweed plant response rating (0 to 100 scale) ([5]; 125 g ai/ha) | Pigweed plant response rating [5, 21] | Plant response rating, Pigweed [13, 21] | Plant response rating, Velvetleaf [14, 21]
10: Barnyardgrass plant response rating (0 to 100 scale, 0 is no effect, 100 is complete control) ([1]; 125 g ai/ha) | Morningglory plant response rating [4, 21] | Velvetleaf plant response rating (0 to 100 scale) ([6]; 125 g ai/ha)
90: Plant response rating, Morningglory [12, 21] | Pigweed plant response rating [13, 22]
80: Crabgrass, Large plant response rating (0 to 100 scale) ([2]; 125 g ai/ha)
0: Morningglory plant response rating (0 to 100 scale) ([4]; 125 g ai/ha) | Wheat plant response rating (0 to 100 scale) ([7]; 125 g ai/ha) | Wheat plant response rating [7, 21] | Corn plant response rating (0 to 100 scale) ([8]; 125 g ai/ha) | Corn plant response rating [8, 21] | Wheat plant response rating [15, 22] | Corn plant response rating [16, 22] | Plant response rating, Rice [17] | Plant response rating, Barnyardgrass [20]
40: Plant response rating, Corn [16, 21] | Plant response rating, Sedge, Umbrella [18]
20: Foxtail, Giant plant response rating (0 to 100 scale) ([3]; 125 g ai/ha) | Foxtail, Giant plant response rating [11, 22] | Plant response rating, Wheat [15, 21]
50: Velvetleaf plant response rating [6, 21] | Crabgrass, Large plant response rating [10, 22] | Plant response rating, Ducksalad [19]
30: Barnyardgrass plant response rating [9, 22] | Velvetleaf plant response rating [14, 22]

Clc1cnc(Oc2cccc(-c3ccccc3)c2-n2cc(Br)cn2)nc1 [Compound 195]
100: Plant response rating, Velvetleaf [14, 21]
20: Velvetleaf plant response rating [6, 21] | Plant response rating, Barnyardgrass [9, 21] | Plant response rating, Corn [16, 21] | Plant response rating, Rice [17] | Plant response rating, Ducksalad [19]
80: Foxtail, Giant plant response rating [3, 21] | Plant response rating, Pigweed [13, 21]
70: Crabgrass, Large plant response rating [2, 21] | Plant response rating, Morningglory [12, 21]
10: Foxtail, Giant plant response rating (0 to 100 scale) ([3]; 125 g ai/ha) | Morningglory plant response rating [4, 21] | Foxtail, Giant plant response rating [11, 22]
30: Morningglory plant response rating [12, 22] | Plant response rating, Sedge, Umbrella [18]
60: Plant response rating, Crabgrass, Large [10, 21] | Pigweed plant response rating [13, 22]
0: Barnyardgrass plant response rating (0 to 100 scale, 0 is no effect, 100 is complete control) ([1]; 125 g ai/ha) | Barnyardgrass plant response rating [1, 21] | Morningglory plant response rating (0 to 100 scale) ([4]; 125 g ai/ha) | Pigweed plant response rating (0 to 100 scale) ([5]; 125 g ai/ha) | Velvetleaf plant response rating (0 to 100 scale) ([6]; 125 g ai/ha) | Wheat plant response rating (0 to 100 scale) ([7]; 125 g ai/ha) | Wheat plant response rating [7, 21] | Corn plant response rating (0 to 100 scale) ([8]; 125 g ai/ha) | Corn plant response rating [8, 21] | Barnyardgrass plant response rating [9, 22] | Wheat plant response rating [15, 22] | Plant response rating, Wheat [15, 21] | Corn plant response rating [16, 22] | Plant response rating, Barnyardgrass [20]
40: Pigweed plant response rating [5, 21] | Crabgrass, Large plant response rating [10, 22]
50: Plant response rating, Foxtail, Giant [11, 21] | Velvetleaf plant response rating [14, 22]

Brc1cnn(-c2ccccc2Oc2ncccn2)c1 [Compound 275]
90: Pigweed plant response rating [5, 21] | Plant response rating, Pigweed [13, 21] | Plant response rating, Velvetleaf [14, 21]
20: Velvetleaf plant response rating (0 to 100 scale) ([6]; 125 g ai/ha) | Plant response rating, Crabgrass, Large [10, 21]
50: Plant response rating, Morningglory [12, 21]
60: Velvetleaf plant response rating [6, 21] | Plant response rating, Velvetleaf [14, 23]
0: Barnyardgrass plant response rating (0 to 100 scale, 0 is no effect, 100 is complete control) ([1]; 125 g ai/ha) | Barnyardgrass plant response rating [1, 21] | Crabgrass, Large plant response rating (0 to 100 scale) ([2]; 125 g ai/ha) | Foxtail, Giant plant response rating (0 to 100 scale) ([3]; 125 g ai/ha) | Morningglory plant response rating (0 to 100 scale) ([4]; 125 g ai/ha) | Morningglory plant response rating [4, 21] | Wheat plant response rating (0 to 100 scale) ([7]; 125 g ai/ha) | Wheat plant response rating [7, 21] | Corn plant response rating (0 to 100 scale) ([8]; 125 g ai/ha) | Corn plant response rating [8, 21] | Plant response rating, Barnyardgrass [9, 23] | Plant response rating, Barnyardgrass [9, 21] | Plant response rating, Crabgrass, Large [10, 23] | Plant response rating, Foxtail, Giant [11, 23] | Plant response rating, Wheat [15, 23] | Plant response rating, Wheat [15, 21] | Plant response rating, Corn [16, 23] | Plant response rating, Corn [16, 21] | Plant response rating, Sedge, Umbrella [18]
15: Plant response rating, Rice [17] | Plant response rating, Barnyardgrass [20]
80: Pigweed plant response rating (0 to 100 scale) ([5]; 125 g ai/ha) | Plant response rating, Pigweed [13, 23]
30: Plant response rating, Foxtail, Giant [11, 21] | Plant response rating, Ducksalad [19]
70: Crabgrass, Large plant response rating [2, 21] | Foxtail, Giant plant response rating [3, 21]
10: Plant response rating, Morningglory [12, 23]

Fc1cnc(Oc2ccccc2-n2cc(Cl)cn2)nc1 [Compound 11]
10: Plant response rating, Barnyardgrass [9, 22] | Plant response rating, Corn [16, 22]
90: Crabgrass, Large plant response rating [2, 22] | Foxtail, Giant plant response rating [3, 22] | Pigweed plant response rating [5, 22] | Velvetleaf plant response rating [6, 22] | Plant response rating, Barnyardgrass [9, 25] | Plant response rating, Crabgrass, Large [10, 25] | Plant response rating, Foxtail, Giant [11, 25]
20: Plant response rating, Wheat [15, 25]
0: Wheat plant response rating [7, 22] | Wheat plant response rating [7, 24] | Corn plant response rating [8, 22] | Plant response rating, Wheat [15, 22] | Plant response rating, Rice [17] | Plant response rating, Sedge, Umbrella [18] | Plant response rating, Barnyardgrass [20]
100: Barnyardgrass plant response rating [1, 24] | Crabgrass, Large plant response rating [2, 24] | Foxtail, Giant plant response rating [3, 24] | Pigweed plant response rating [5, 24] | Velvetleaf plant response rating [6, 24] | Plant response rating, Morningglory [12, 25] | Plant response rating, Pigweed [13, 22] | Plant response rating, Pigweed [13, 25] | Plant response rating, Velvetleaf [14, 22] | Plant response rating, Velvetleaf [14, 25]
30: Morningglory plant response rating [4, 22] | Corn plant response rating [8, 24]
60: Morningglory plant response rating [4, 24] | Plant response rating, Morningglory [12, 22]
70: Barnyardgrass plant response rating [1, 22] | Plant response rating, Crabgrass, Large [10, 22] | Plant response rating, Foxtail, Giant [11, 22]
50: Plant response rating, Corn [16, 25] | Plant response rating, Ducksalad [19]

Fc1ccc(Oc2ncc(Cl)cn2)c(-n2cc(Br)cn2)c1 [Compound 53]
10: Plant response rating, Corn [8, 26]
0: Wheat plant response rating [7, 27] | Plant response rating, Rice [17] | Plant response rating, Sedge, Umbrella [18] | Plant response rating, Barnyardgrass [20]
60: Morningglory plant response rating [4, 27]
75: Plant response rating, Ducksalad [19]
30: Plant response rating, Wheat [15, 26] | Plant response rating, Corn [16, 26]
70: Plant response rating, Crabgrass, Large [10, 26]
90: Plant response rating, Barnyardgrass [9, 26]
100: Plant response rating, Barnyardgrass [1, 26] | Plant response rating, Crabgrass, Large [2, 26] | Foxtail, Giant plant response rating [3, 27] | Pigweed plant response rating [5, 27] | Velvetleaf plant response rating [6, 27] | Plant response rating, Morningglory [12, 26] | Plant response rating, Pigweed [13, 26] | Plant response rating, Velvetleaf [14, 26]
80: Plant response rating, Foxtail, Giant [11, 26]

From patent US9695155B2, “Herbicidal substituted pyrimidinyloxy benzene compounds” (E. I. DU PONT DE NEMOURS AND COMPANY, priority 2013, dated 2017)
